Results on ten compounds are retold here after ChEMBL document CHEMBL4152351, “Isoxazolo[3,4-d]pyridazinones positively modulate the metabotropic glutamate subtypes 2 and 4” (Bioorg Med Chem, 2018).

Molecules are shown by their SMILES.

The target of assay [1] is Metabotropic glutamate receptor 5 (Homo sapiens, UniProt P41594). In words: Displacement of MPEP from mGluR5 (unknown origin) after 3 hrs by liquid scintillation counting method.
Assay [2] concerns the target Metabotropic glutamate receptor 2 (Homo sapiens) (UniProt Q14416). In words: Antagonist activity at Gi-coupled mGluR2 (unknown origin) expressed in CHO cells assessed as decrease in glutamate-induced inhibition of forskolin-stimulated cAMP accumulation after 1 hr by glosensor based luciferase reporter gene assay relative to control. Format: functional, cell-based. On the set-up: concentration or dose not given beside the values. Conditions: concentration not given here. (In general: Changes in cAMP serve as a functional read-out for many G protein-coupled receptors.)

The target of assay [3] is Glutamate [NMDA] receptor. As to the kind of experiment: Displacement of [3H]MK-801 from NMDA receptor (unknown origin) after 3 hrs by liquid scintillation counting method. The class given is protein-complex assay, Homo sapiens.
The target of assay [4] is Metabotropic glutamate receptor 4 (Homo sapiens) (UniProt Q14833). In words: Antagonist activity at Gi-coupled mGluR4 (unknown origin) expressed in CHO cells assessed as decrease in glutamate-induced inhibition of forskolin-stimulated cAMP accumulation after 1 hr by glosensor based luciferase reporter gene assay relative to control. Set-up: concentration or dose not given beside the values. Format: functional, cell-based. The conditions noted are these: concentration not given here.
Chain of Metabotropic glutamate receptor 4 (Homo sapiens) (Q14833 whole entry): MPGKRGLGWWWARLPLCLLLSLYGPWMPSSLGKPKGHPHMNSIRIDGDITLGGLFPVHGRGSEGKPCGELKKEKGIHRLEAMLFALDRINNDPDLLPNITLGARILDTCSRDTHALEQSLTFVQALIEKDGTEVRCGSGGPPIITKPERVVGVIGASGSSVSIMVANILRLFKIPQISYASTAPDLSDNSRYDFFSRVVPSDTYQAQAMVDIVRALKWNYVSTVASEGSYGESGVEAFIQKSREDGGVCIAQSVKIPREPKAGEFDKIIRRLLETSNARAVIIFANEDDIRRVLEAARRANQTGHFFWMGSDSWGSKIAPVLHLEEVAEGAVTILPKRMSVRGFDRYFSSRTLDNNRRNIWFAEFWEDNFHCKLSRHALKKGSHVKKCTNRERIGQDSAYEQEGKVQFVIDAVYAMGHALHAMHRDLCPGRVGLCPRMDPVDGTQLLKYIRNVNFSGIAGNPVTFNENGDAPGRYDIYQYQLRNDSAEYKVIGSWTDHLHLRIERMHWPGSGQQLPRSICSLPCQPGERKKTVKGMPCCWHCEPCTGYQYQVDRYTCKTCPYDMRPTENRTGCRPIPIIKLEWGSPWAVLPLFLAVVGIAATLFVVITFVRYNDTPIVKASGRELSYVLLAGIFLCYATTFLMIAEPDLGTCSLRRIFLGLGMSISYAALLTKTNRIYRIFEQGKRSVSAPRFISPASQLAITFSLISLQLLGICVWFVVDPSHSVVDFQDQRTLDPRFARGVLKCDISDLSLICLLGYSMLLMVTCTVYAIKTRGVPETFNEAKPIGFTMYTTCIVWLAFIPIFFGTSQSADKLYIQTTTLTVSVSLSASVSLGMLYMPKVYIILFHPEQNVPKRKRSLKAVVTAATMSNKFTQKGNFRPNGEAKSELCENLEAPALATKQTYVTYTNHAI

For another assay, the species on record is Homo sapiens. As to the kind of experiment: Displacement of muscimol from GABA-A receptor (unknown origin) after 90 mins by liquid scintillation counting method. On the set-up: concentration or dose not given beside the values.

Chain of Metabotropic glutamate receptor 2 (Homo sapiens) (Q14416 19-872 limits assumed): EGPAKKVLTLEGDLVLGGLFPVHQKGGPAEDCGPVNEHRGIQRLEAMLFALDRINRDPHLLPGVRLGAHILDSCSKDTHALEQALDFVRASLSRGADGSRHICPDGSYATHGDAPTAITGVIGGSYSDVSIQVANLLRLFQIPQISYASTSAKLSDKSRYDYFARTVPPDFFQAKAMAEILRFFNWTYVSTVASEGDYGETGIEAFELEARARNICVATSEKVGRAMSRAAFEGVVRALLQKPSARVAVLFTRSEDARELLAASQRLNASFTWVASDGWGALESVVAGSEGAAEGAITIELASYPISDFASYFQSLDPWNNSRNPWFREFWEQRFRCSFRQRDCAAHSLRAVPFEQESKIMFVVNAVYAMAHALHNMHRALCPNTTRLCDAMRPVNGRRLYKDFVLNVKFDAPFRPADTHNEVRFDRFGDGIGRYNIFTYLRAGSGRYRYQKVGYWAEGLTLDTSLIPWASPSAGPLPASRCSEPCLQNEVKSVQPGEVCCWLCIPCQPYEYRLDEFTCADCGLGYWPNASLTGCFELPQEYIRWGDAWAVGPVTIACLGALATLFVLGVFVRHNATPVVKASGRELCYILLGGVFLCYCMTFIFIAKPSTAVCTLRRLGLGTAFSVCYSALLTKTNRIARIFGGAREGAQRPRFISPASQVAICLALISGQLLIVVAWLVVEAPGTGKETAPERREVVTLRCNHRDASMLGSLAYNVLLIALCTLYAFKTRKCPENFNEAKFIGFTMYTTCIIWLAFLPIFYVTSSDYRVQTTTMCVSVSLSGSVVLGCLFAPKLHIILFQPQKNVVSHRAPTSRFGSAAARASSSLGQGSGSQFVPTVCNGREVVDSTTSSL
Chain of Metabotropic glutamate receptor 5 (P41594 whole entry): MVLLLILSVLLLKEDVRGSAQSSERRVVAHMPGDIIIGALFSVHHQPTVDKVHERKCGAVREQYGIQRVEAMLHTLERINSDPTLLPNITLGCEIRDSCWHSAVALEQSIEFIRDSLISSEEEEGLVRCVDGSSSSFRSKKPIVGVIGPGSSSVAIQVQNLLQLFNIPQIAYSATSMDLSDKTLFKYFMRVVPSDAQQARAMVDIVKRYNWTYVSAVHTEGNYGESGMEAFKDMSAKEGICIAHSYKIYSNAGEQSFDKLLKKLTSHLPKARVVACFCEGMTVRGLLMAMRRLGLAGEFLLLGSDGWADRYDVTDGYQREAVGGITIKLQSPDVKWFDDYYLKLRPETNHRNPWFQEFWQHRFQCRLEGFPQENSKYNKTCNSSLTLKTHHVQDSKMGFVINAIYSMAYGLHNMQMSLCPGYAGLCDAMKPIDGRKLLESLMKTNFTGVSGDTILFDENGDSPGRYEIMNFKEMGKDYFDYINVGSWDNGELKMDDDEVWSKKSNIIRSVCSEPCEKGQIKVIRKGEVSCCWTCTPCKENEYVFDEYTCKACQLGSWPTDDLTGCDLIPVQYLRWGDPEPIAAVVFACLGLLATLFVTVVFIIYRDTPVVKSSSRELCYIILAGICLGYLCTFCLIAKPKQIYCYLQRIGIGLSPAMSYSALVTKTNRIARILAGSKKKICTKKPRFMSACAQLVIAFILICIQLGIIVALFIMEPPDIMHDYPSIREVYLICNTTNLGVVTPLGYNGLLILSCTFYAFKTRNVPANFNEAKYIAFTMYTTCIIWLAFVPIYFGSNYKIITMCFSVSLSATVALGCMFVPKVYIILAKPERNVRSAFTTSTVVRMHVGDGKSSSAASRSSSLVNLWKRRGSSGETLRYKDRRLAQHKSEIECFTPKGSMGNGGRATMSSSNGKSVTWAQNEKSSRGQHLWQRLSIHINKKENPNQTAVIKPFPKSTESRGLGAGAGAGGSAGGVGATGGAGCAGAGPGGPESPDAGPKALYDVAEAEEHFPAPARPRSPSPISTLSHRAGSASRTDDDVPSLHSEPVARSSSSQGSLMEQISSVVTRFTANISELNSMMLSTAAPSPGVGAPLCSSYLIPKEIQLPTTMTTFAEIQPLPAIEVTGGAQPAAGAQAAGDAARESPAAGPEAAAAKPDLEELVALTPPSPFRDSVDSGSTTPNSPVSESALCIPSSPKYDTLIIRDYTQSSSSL

What is called Ki is the equilibrium dissociation constant of an inhibitor or competing ligand from its target. A word on the inhibition: it is the drop in the measured response relative to a control, in per cent. For the compound `Cc1nn(-c2cccc([N+](=O)[O-])c2)c(=O)c2nocc12`, the Ki in assay [1] and in assay [3] was > 10 µM in each case. Besides, the inhibition in assay [2] is 48%; in assay [4], -10%.

With `Cc1nn(-c2cc(C(F)(F)F)cc(C(F)(F)F)c2)c(=O)c2nocc12`, the inhibition is -7.2% in the assay filed under Homo sapiens, 0% in assay [2] and 11% in assay [4]. Besides, the Ki in assay [3] is > 10 µM.

Take `Cc1nn(-c2cc(Cl)cc(Cl)c2)c(=O)c2nocc12`: the Ki in assay [1] is 3.08 µM; in assay [3], > 10 µM. The figures for the inhibition (in the assay filed under Homo sapiens; in assay [2]; in assay [4]) were -7.8%, 11% and -6%, respectively.

Turning to `Cc1nn(-c2ccc(F)cc2)c(=O)c2nocc12`, the Ki in assay [1] and in assay [3] was > 10 µM in each case. Moreover, the inhibition was -6% in the assay filed under Homo sapiens, 23% in assay [2] and 3% in assay [4].

As for `Cc1nn(-c2ccccc2)c(=O)c2nocc12`, the Ki in assay [1] and in assay [3] was > 10 µM in each case. Further, the inhibition in the assay listed under Homo sapiens is -6%; in assay [4], -5%.

Take `Cc1ccc(-n2nc(C)c3conc3c2=O)cc1`: the values for the Ki in assay [1] and in assay [3] were 1.88 µM and > 10 µM, respectively. Besides, the inhibition in assay [4] is -9%.

With `COc1ccc(-n2nc(C)c3conc3c2=O)cc1`, the inhibitory constant (Ki) in assay [1] and in assay [3] was > 10 µM throughout. Besides, the inhibition in assay [4] amounted to 9%.

Turning to `Cc1nn(-c2ccc([N+](=O)[O-])cc2)c(=O)c2nocc12`, the Ki in assay [1] and in assay [3] was > 10 µM throughout. Further, the results for the inhibition (in the assay filed under Homo sapiens; in assay [2]; in assay [4]) were -4.7%, 5% and -3%, respectively.

Turning to `Cc1nn(-c2ccc(F)cc2F)c(=O)c2nocc12`, the Ki in assay [1] and in assay [3] was > 10 µM each time. Also, the inhibition was -10% in the assay listed under Homo sapiens and -7% in assay [4].

For the compound `CN1CC(=O)N=C1NC(=O)Nc1cccc(Cl)c1` [FENOBAM ANHYDROUS], the Ki in assay [1] is 0.033 µM.
